The text below walks through data of ChEMBL document CHEMBL4138052, “Synthesis, characterization, solubilization, cytotoxicity and antioxidant activity of aminomethylated dihydroquercetin” (Medchemcomm, 2017).

Converted amounts (≈) assume the structure as drawn. The source made the active and inactive calls. The calls are words filed in the database; no cut-off is given here.

Usually IC50 stands for the concentration needed to halve the response being measured. The solubility is the concentration that dissolves in the medium under given conditions. Usually EC50 stands for the concentration that produces a half-maximal response.

Data set [1] is described as follows: Dissolution of the compound at 0.12 mg measured at 360 mins by UV spectrophotometry. Conditions: 6 h. The format is physicochemical.
Data set [2] deals with HEK293. As to the kind of experiment: Stimulation of cell growth in HEK293 cells assessed as cell growth rate at 200 uM incubated for 48 hrs by MTT assay. Format: functional. Conditions: Homo sapiens, HEK293, 48 h; read-out: Activity.
Data set [3] in a line: Dissolution of the compound at 0.12 mg measured at 38 mins by UV spectrophotometry. The format is physicochemical.
The test system of data set [4] is HEK293. Put plainly: Potency index, ratio of cell growth stimulation activity of DHQ to cell growth stimulation activity of test compound for stimulation of cell growth in HEK293 cells assessed as cell growth rate at 200 uM incubated for 48 hrs by MTT assay. Format: functional, Homo sapiens.
Data set [5] is described as follows: Antioxidant activity assessed as ABTS radical scavenging activity at 0.1 mM incubated for 6 mins by spectrophotometry. The format is functional.
The nature of data set [6]: Antioxidant activity assessed as DPPH radical scavenging activity using micronized compound. Format: functional. (In general: Loss of DPPH colour is used to gauge radical scavenging.)
Data set [7] can be described thus: Antioxidant activity assessed as DPPH radical scavenging activity at 0.09 mM incubated for 30 mins. Format: functional.
Data set [8] is described as follows: Antioxidant activity assessed as ABTS radical scavenging activity incubated for 6 mins by spectrophotometry. The format is functional.
A short description of data set [9]: Solubility in PBS using micronized compound measured at 60 mins. Format: physicochemical.
Data set [10] is described as follows: Ratio of solubility of DHQ to solubility of test compound in water at pH 5.7 under nitrogen and sheltered from light condition incubated for 1 hr. The format is physicochemical. Conditions: buffer, pH 5.7, 1 h.
The test system of the next data set is HeLa. Put plainly: Cytotoxicity in human HeLa cells assessed as reduction in cell survival incubated for 48 hrs by MTT assay. Format: functional, cell-based.
Data set [11] is described as follows: Antioxidant activity assessed as DPPH radical scavenging activity at 0.03 to 0.06 mM incubated for 30 mins. The format is functional.
Data set [12] concerns HEK293. As to the kind of experiment: Stimulation of cell growth in HEK293 cells assessed as increase in cell survival at 2 to 360 uM incubated for 48 hrs by MTT assay. Format: functional, cell-based. Conditions: Homo sapiens. A general note: Formazan colour is commonly taken as a measure of viable cells.
Data set [13] is described as follows: Safety index, ratio of EC50 for aristolochic acid to EC50 for test compound for cytotoxicity in HEK293 cells assessed as reduction in cell survival incubated for 48 hrs by MTT assay. Format: cell-based. Conditions: human, read-out: Ratio EC50.
Data set [14] relates to HEK293. As to the kind of experiment: Cytotoxicity in HEK293 cells assessed as reduction in cell survival incubated for 48 hrs by MTT assay. Conditions: Homo sapiens, HEK293, 48 h. Format: cell-based.
A short description of data set [15]: Solubility in water at pH 5.7 under nitrogen and sheltered from light condition incubated for 1 hr. Format: physicochemical.
The nature of data set [16]: Reducing power of the compound assessed as reducing Fe3+ power at 0.15 to 1.2 mM using potassium ferricyanide in pH 6.6 KH2PO4-K2HPO4 buffer by UV spectrophotometry. The format is physicochemical. Conditions: pH 6.6, 1200 µM.
Data set [17] can be described thus: Thermal stability of the compound assessed as drug degradation by measuring compound weight loss at 217 to 600 degC. Format: physicochemical. Conditions: read-out: Drug degradation.
A short description of data set [18]: Thermal stability of the compound assessed as drug degradation by measuring compound weight loss at 247 to 600 degC. Format: physicochemical. Conditions: read-out: Drug degradation.
A short description of data set [19]: Thermal stability of the compound assessed as drug degradation by measuring compound weight loss at 30 to 100 degC. Format: physicochemical. Conditions: read-out: Drug degradation.

Take `O=C(O)C1CCCN1Cc1c(O)c(CN2CCCC2C(=O)O)c2c(c1O)C(=O)[C@@H](O)[C@H](c1ccc(O)c(O)c1)O2` (some centres undefined): the Activity in data set [1] was 83.78%; in [3], 87.1%; in [5], 98.3%; in data set [7], 85.7%; in the data set with HeLa, “Dose-dependent effect”; in data set [16], “Dose-dependent effect”. For the same compound, the growth at 200 µM with HEK293 [2] is 54.5%. In addition, the Ratio came to 2.5 in the data set on HEK293 [4] and 16 in [10]. Further, the figures for the IC50 in data set [6] and in [8] were 22 mg/L (≈ 39.4 µM) and 42 µM, respectively. Further, the solubility at 1 h in data set [9] amounted to 0.21 mg/mL (≈ 376 µM); in data set [15], 19.5 mg/mL (≈ 35000 µM). For the same compound, the EC50 with HeLa was determined as 138 µM; in the data set on HEK293 [14], 820 µM. For the same compound, the outcome (in data set [11]; in the data set on HEK293 [12]) was Active. The selectivity ratio at 48 h in [13] was 7. In data set [17], the degraded stood at 64.8%.
With `O=C1O[C@H]([C@@H](O)CO)C(O)=C1O` [ASCORBIC ACID], in data set [8], the IC50 was 42 µM. Besides, the Activity entry in [16] is recorded as “Dose-dependent effect”.
For `O=C1c2c(O)cc(O)cc2O[C@H](c2ccc(O)c(O)c2)[C@H]1O` [(+)-TAXIFOLIN], in the data set on HEK293 [2], the growth at 200 µM was found to be 22.6%. The Activity in [3] was 13.8%; in data set [5] it was 84.9%; in data set [7], 88.7%; with HeLa, “Dose-dependent effect”; in [16], “Dose-dependent effect”. The IC50 in data set [6] was found to be 500 mg/L (≈ 1640 µM); in data set [8], 48 µM. The figures for the degraded in data set [18] and in data set [19] were 43.4% and 10.1%, respectively. The values for the solubility at 1 h in data set [9] and in data set [15] were 0.02 mg/mL (≈ 65.7 µM) and 1.2 mg/mL (≈ 3940 µM), respectively. Also, the concentration for a half-maximal effect (EC50) stood at 125 µM in the data set with HeLa and 671 µM with HEK293 [14]. Further, the result (in data set [11]; in the data set on HEK293 [12]) was Active. Further, the selectivity ratio at 48 h in [13] was determined as 5.6.
In the case of `COc1cccc2c1cc([N+](=O)[O-])c1c(C(=O)O)cc3c(c12)OCO3` [ARISTOLOCHIC ACID], the concentration giving a half-maximal response (EC50) in the data set on HEK293 [14] is 118 µM.
